# pEC50: −log10 of the molar value.
# Target: sGC α1/β1 heterodimer (Homo sapiens (Human), UniProt Q02108+Q02153)
# Assay: Cell-based sGC functional assay (cyclic GMP assay for sGC activator: CASA assay)
# Settings: CHO-K1/sGC cells; for pEC50: inflection point, 4P fit, read-out: IP; for Emax: CHO-K1, activity expressed as percentage of compound A (standard), read-out: % Activation
# Excerpt: Cell-Based sGC Functional Assay (Cyclic GMP Assay for sGC Activator: CASA Assay)
# Soluble guanylate cyclase (sGC) is a heme-containing enzyme that converts GTP to secondary messenger cGMP. Increases in cGMP levels affect several physiological processes including vasorelaxation through multiple downstream pathways. […] Heme-dependent activators (HDAs) preferentially activate sGC containing a ferrous heme group. To determine the effect of sGC activators on enzyme activity, the CASA assay was developed to monitor the generation of cGMP in a cell line that stably expresses the heterodimeric sGC protein.
# A CHO-K1 cell line stably expressing the sGC α1/β1 heterodimer was generated using a standard transfection protocol. CHO-K1 cells were transfected with plasmids pIREShyghsGCα1 and pIRESneo-hsGCβ1 simultaneously using FUGENE reagent. Clones that stably express both subunits were selected with hygromycin and neomycin for ˜2 weeks. Clone #7 was chosen for the assay and was designated CHO-K1/sGC. CHO-K1/sGC cells were maintained in F-K12 medium containing 10% heat-inactivated Fetal Bovine Serum (FBS), 100 μg/mL penicillin/streptomycin, 0.5 mg/mL hygromycin and 0.25 mg/mL G418. The cells were then cryopreserved in LN2. On the day of the assay, the cells were thawed and resuspended in EBSS Assay Buffer (Sigma, E3024) supplemented with 5 mM MgCl2, 10 mM HEPES (4-(2-hydroxyethyl)piperazine-1-ethanesulfonic acid) and 0.05% BSA (bovine serum albumin) (EAB) and cell density was then adjusted to 2.25×10^5/mL with EAB. IBMX (3-isobutyl-1-methylxanthin, 0.5 mM) was added to inhibit degradation of cGMP. Compounds were diluted from DMSO stock solutions and added to the assay at a final DMSO concentration of 2.5%. Cells were pre-incubated in the presence and absence of 1 μM of Diethylenetriamine/nitric oxide adduct (DETA-NO; Sigma, 17018) for 30 min at 25° C. Compounds are subsequently added and incubated for 1 hr at 37° C. At the end of the incubation period, the reaction was terminated and the cells were lysed with the detection reagents from Cisbio Kits. The level of intracellular cGMP was determined using an HTRF-based assay kit (CisBio, 62GM2PEC), which detects the displacement of a fluorescence labeled cGMP from its specific antibody. The cGMP produced by test compounds was directly compared to the maximum cGMP production (this value was set to equal 100% activation.) of the published sGC-HDA compound A:
# (Example 1 in WO 2010/065275, published Jun. 10, 2010). The test compounds' activity were then expressed as a percentage of compound A, the standard in every experiment. This percent activation was calculated either in the presence or absence of DETA-NO which was then plotted. Inflection points (IP) and maximum fold induction was derived using Abase analysis software for 4P fit.
# Chain of sGC α1/β1 heterodimer (Q02108 whole entry): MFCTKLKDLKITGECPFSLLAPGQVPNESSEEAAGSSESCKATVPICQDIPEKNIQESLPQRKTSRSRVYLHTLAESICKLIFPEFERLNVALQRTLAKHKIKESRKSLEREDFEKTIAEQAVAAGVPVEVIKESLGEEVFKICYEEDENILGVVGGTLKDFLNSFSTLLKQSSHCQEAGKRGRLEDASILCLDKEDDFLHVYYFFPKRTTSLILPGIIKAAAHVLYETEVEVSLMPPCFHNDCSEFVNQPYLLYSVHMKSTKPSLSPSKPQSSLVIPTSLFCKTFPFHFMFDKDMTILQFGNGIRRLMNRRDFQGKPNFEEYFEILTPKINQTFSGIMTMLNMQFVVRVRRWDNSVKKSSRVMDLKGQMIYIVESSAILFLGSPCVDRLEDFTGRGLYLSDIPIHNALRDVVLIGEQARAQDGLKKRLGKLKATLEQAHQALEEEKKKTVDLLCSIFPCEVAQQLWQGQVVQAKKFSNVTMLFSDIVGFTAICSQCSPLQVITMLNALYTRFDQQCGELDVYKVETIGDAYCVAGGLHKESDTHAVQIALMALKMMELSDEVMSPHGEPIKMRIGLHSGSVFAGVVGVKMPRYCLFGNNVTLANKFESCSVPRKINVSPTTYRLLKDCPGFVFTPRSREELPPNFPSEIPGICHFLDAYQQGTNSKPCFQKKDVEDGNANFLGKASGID
# Chain of sGC α1/β1 heterodimer (Q02153 whole entry): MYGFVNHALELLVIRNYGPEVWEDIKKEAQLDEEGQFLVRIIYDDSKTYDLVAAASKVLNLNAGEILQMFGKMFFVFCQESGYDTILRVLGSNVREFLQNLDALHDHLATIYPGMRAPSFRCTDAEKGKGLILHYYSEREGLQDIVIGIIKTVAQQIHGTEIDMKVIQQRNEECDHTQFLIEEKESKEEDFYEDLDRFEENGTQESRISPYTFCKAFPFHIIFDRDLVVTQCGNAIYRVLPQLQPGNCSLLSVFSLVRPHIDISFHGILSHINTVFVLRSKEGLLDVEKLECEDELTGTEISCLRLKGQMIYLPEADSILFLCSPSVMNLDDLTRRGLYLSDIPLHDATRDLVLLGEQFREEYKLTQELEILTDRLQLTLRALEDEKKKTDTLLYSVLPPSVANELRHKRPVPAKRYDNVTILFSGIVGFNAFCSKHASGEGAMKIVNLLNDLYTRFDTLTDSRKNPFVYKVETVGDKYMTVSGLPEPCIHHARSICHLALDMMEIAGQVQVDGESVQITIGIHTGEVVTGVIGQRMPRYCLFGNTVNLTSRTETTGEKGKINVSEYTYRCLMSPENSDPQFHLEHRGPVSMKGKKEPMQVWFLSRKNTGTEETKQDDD
Compound,pEC50,Emax [%]
"CC1(c2nn(C(C)(C)C(=O)O)c(=O)o2)C(=O)Nc2nc(-c3nn(CCC(F)(F)C(F)(F)F)c4cc(Cl)ccc34)nc(N)c21 (single isomer, unassigned) [Example 99B, 2-[5-{4-Amino-2-[6-chloro-1-(3,3,4,4,4-pentafluorobutyl)-1H-indazol-3-yl]-5-methyl-6-oxo-6,7-dihydro-5H-pyrrolo[2,3-d]pyrimidin-5-yl}-2-oxo-1,3,4-oxadiazol-3(2H)-yl]-2-methylpropanoic acid]",6.73,
"CC(C)(Cc1ccc(C2(C)C(=O)Nc3nc(-c4nn(CCC(F)(F)C(F)(F)F)c5ncccc45)nc(N)c32)nc1)C(=O)O (stereo not drawn) [Example 8B, 3-(6-{4-amino-5-methyl-6-oxo-2-[1-(3,3,4,4,4-pentafluoro-butyl)-1H-pyrazolo[3,4-b]pyridin-3-yl]-6,7-dihydro-5H-pyrrolo[2,3-d]pyrimidin-5-yl}pyridin-3-yl)-2,2-dimethyl-propanoic acid]",5.87,129
"CC1(c2cccc(CCC(=O)O)c2)C(=O)Nc2nc(-c3nn(Cc4ccccc4F)c4cc(Cl)ccc34)nc(N)c21 (stereo not drawn) [Example 48A, 3-(3-{4-amino-2-(6-chloro-1-(2-fluorobenzyl)-1H-indazol-3-yl)-5-methyl-6-oxo-6,7-dihydro-5H-pyrrolo[2,3-d]pyrimidin-5-yl}phenyl)propanoic acid]",6.59,102
"C[C@H](O)[C@@H](NC(=O)CCc1ccc([C@]2(C)C(=O)Nc3nc(-c4nn(Cc5ccccc5F)c5ncccc45)nc(N)c32)cc1)C(=O)O [Example 107B, (5S)-(3-(4-{4-amino-2-[1-(2-fluorobenzyl)-1H-pyrazolo[3,4-b]pyridin-3-yl]-5-methyl-6-oxo-6,7-dihydro-5H-pyrrolo[2,3-d]pyrimidin-5-yl}phenyl)propanoyl)-D-threonine]",6.40,113
"CC1(c2nc(CC(=O)O)cs2)C(=O)Nc2nc(-c3nn(CCC(F)(F)C(F)(F)F)c4ncccc34)nc(N)c21 (stereo not drawn) [Example 78A, (2-{4-Amino-5-methyl-6-oxo-2-[1-(3,3,4,4,4-pentafluorobutyl)-1H-pyrazolo[3,4-b]pyridin-3-yl]-6,7-dihydro-5H-pyrrolo[2,3-d]pyrimidin-5-yl}-1,3-thiazol-4-yl)acetic acid]",,93
"Cc1sc(C2(C)C(=O)Nc3nc(-c4nn(CCC(F)(F)C(F)(F)F)c5cc(Cl)ccc45)nc(N)c32)nc1-c1ccc(C(=O)O)cc1 (stereo not drawn) [Example 94B, 4-(2-{4-amino-2-[6-chloro-1-(3,3,4,4,4-pentafluorobutyl)-1H-indazol-3-yl]-5-methyl-6-oxo-6,7-dihydro-5H-pyrrolo[2,3-d]pyrimidin-5-yl}-5-methyl-1,3-thiazol-4-yl)benzoic acid]",6.75,108
"CC1(c2cn(CCC(=O)O)nn2)C(=O)Nc2nc(-c3nn(CCC(F)(F)C(F)(F)F)c4cc(Cl)ccc34)nc(N)c21 (stereo not drawn) [Example 29B, 3-(4-{4-amino-2-[6-chloro-1-(3,3,4,4,4-pentafluorobutyl)-1H-indazol-3-yl]-5-methyl-6-oxo-6,7-dihydro-5H-pyrrolo[2,3-d]pyrimidin-5-yl}-1H-1,2,3-triazol-1-yl)propanoic acid]",,82
"CC1(c2nc(CCCC(=O)O)cs2)C(=O)Nc2nc(-c3nn(Cc4ccccc4F)c4ccccc34)nc(N)c21 (stereo not drawn) [Example 55A, 4-(2-{4-amino-2-[1-(2-fluorobenzyl)-1H-indazol-3-yl]-5-methyl-6-oxo-6,7-dihydro-5H-pyrrolo[2,3-d]pyrimidin-5-yl}thiazol-4-yl)butanoic acid]",6.36,105
"C[C@@]1(c2ccc(CCC(=O)O)cc2)C(=O)Nc2nc(-c3nn(Cc4ccccc4F)c4ccc(F)cc34)nc(N)c21 [Example 71B, (S)-3-(4-{4-amino-2-[5-fluoro-1-(2-fluorobenzyl)-1H-indazol-3-yl]-5-methyl-6-oxo-6,7-dihydro-5H-pyrrolo[2,3-d]pyrimidin-5-yl}phenyl)propanoic acid]",7.14,78

# Source: patent publication US10030027B2, “Soluble guanylate cyclase stimulators” (MERCK SHARP & DOHME CORP., priority 2015, dated 2018)
